According to patent US20070225253A1, “Use of a trioxopyrimidine for the treatment and prevention of bronchial inflammatory diseases” (priority 2004, published 2007):
Values after ≈ are worked out from the molar mass of the structure shown. Values joined by “and” are separate entries in the source; they are usually repeats but may differ in a detail not shown here. Equal entries are not always repeated. Where two headings read alike, the source gives them in different places.

Key:
[1] = Phase solubility study of Compound I with HP-β-CD and L-lysine; assay type: physicochemical; details: for solubility at 7 days: 25 °C, thermodynamic from solid
Description: Solubility studies were performed as described by Higuchi, T., and Connors, K. A., Advances in Analytical Chemistry and Instrumentation 4 (1965) 117-212. Excess amounts of Compound I were added to increasing concentrations of HP-β-CD (0-200 mM) in 5 ml dissolution media, either purified water or L-lysine solutions (50 mM or 500 mM). The glass containers were sealed and the suspensions were shaken in a water-bath at 25° C. until complexation equilibrium was reached (7 days). An aliquot was filtered through a 0.45 μm PVDF membrane filter and assayed for Compound I content by a validated liquid chromatography (LC) method.

[2] = tested on: allergen-induced airway inflammation and bronchial hyperresponsiveness; assay: Mouse model of asthma (OVA), inhalation, short exposure challenge; assay type: in vivo, mice; details: inhalation of 40 mg/ml solution in pure DMSO, short-term exposure, vs DMSO alone
Description: In order to study the modulation of airway inflammation by intraperitoneal injection of Compound I, mice were sensitized with 10 μg ovalbumin alumin-adsorbed (aluminject, perbio, Erembodegem, Belgium) injected intraperitonealy at days 0 and 7 and were subsequently exposed to OVA 1% or PBS aerosols for 30 minutes from day 21 to 24. Intraperitoneal injections were performed 30 min before OVA inhalations. The different injected formulations were: cremophor 10%-DMSO 10%-PBS 80%- Compound I30 mg/kg (suspension); cremophor 10%-DMSO 10%-PBS 80%- Compound I3.75 mg/kg (solution); HPβCD 200 mM Compound I 7.5 mg/kg (solution); HPβCD 200 mM. All results were compared to mice sensitized and exposed to PBS and OVA treated with PBS injected intraperitonealy. In order to study the modulation of airway inflammation by inhaled Compound I, mice were sensitized as described previously. Two protocols referred to as short exposure challenge and long-term exposure challenge were used. In the short exposure challenge, mice were exposed to aerosols of Compound I-complex at concentrations of 0.03 and 0.3 mg/ml of active compound in aqueous solution of from day 21 to 27 during 30 min in a Plexiglas exposure chamber (30×20×15 cm). Mice were exposed to OVA aerosols 30 minutes after the Compound I inhalation from day 23 to 27. In the so called long-term inhalation challenge, mice were exposed to aerosols of Compound Iat concentrations of 0.03 and 0.3 mg/ml complexed with HPβCD in an aqueous solution during 30 min five days odd weeks and to OVA aerosols 3 days odd weeks for 11 weeks. No inhalations were performed during even weeks.
The aerosol were produced by using an ultrasonic nebuliser SYSTAM (Systeme Assistance Medical, Le Ledat, France), the vibration frequency of which is 2.4 MHz with variable vibration intensity and ventilation levels. Vibration intensity was fixed in position 6 and the ventilation level was 25(ν1/2)1/min.
(§1) Twenty-four hours after the last allergen exposure, the bronchial hyper responsiveness was determined by measuring the Penh using a barometric plethysmograph as proposed by Hamelmann, E., et al., Am. J Respir. Crit. Care Med. 156 (1997) 766-775). The Penh was measured at baseline and 5 min after the inhalation of increasing doses (25, 50, 75 and 100 mM) of methacholine (Mch).
(§2) Immediately after the assessment of airway responsiveness, mice were sacrificed and 1 ml of PBS free of ionised calcium and magnesium but supplemented with 0.05 mM sodium EDTA was instilled 4 times via a tracheal cannula and recovered by gentle manual aspiration. The recovered bronchoalveolar lavage fluid (BAL) was centrifuged (1800 rpm for 10 min at 4° C.). […] A value from 0 to 3 per criteria was adjudged to each tissue section scored. […]

[3] = tested on: allergen-induced airway inflammation; assay: Mouse model of asthma (OVA), intraperitoneal injection of Compound I; assay type: in vivo, mice; details: 3.75 to 30 mg/kg
Description: In order to study the modulation of airway inflammation by intraperitoneal injection of Compound I, mice were sensitized with 10 μg ovalbumin alumin-adsorbed (aluminject, perbio, Erembodegem, Belgium) injected intraperitonealy at days 0 and 7 and were subsequently exposed to OVA 1% or PBS aerosols for 30 minutes from day 21 to 24. Intraperitoneal injections were performed 30 min before OVA inhalations. The different injected formulations were: cremophor 10%-DMSO 10%-PBS 80%- Compound I30 mg/kg (suspension); cremophor 10%-DMSO 10%-PBS 80%- Compound I3.75 mg/kg (solution); HPβCD 200 mM Compound I 7.5 mg/kg (solution); HPβCD 200 mM. […]
as §1, with “J Respir. Crit. Care Med. 156 (1997) 766-775).” left out
as §2, with “aspiration.” for “aspiration. The recovered bronchoalveolar lavage fluid (BAL) was centrifuged (1800 rpm for 10 min at 4° C.).”

In the case of `O=C1NC(=O)C(c2ccc(-c3ccccc3)cc2)(N2CCN(c3ccc([N+](=O)[O-])cc3)CC2)C(=O)N1` [Compound I, 5-Biphenyl-4-yl-5-[4-(4-nitro-phenyl)-piperazin-1-yl]pyrimidine-2,4,6-trione], the solubility at 7 days ([1]; 50 mM L-lysine solution with 200 mM HP-β-CD, aqueous with cosolvent or surfactant or cyclodextrin, L-lysine 50 mM, 25° C., read-out: Solubility with HP-β-CD (200 mM)) is reported as 17100 µg/mL (≈ 35.2 mM), the solubility at 7 days ([1]; 50 mM L-lysine solution, no cyclodextrin, aqueous buffer, L-lysine 50 mM, 25° C., read-out: Solubility without CD) is reported as 50 µg/mL (≈ 0.103 mM) and the solubility at 7 days ([1]; 200 mM HP-β-CD in purified water, aqueous with cosolvent or surfactant or cyclodextrin, purified water, 25° C., read-out: Solubility with HP-β-CD (200 mM)) is reported as 5530 µg/mL (≈ 11.4 mM). For the same compound, the solubility at 7 days ([1]; 200 mM HP-β-CD in purified water, no L-lysine, aqueous with cosolvent or surfactant or cyclodextrin, solubility in a 200 mM HP-β-CD solution, absence of L-lysine) was ~5500 µg/mL and ~11000 µM, the “increase of aqueous solubility” value ([1]; 200 mM HP-β-CD, no L-lysine, vs purified water) was “approximately 10,000 fold” and the solubility at 7 days ([1]; 500 mM L-lysine solution with 200 mM HP-β-CD, aqueous with cosolvent or surfactant or cyclodextrin, 500 mM L-lysine and 200 mM HP-β-CD, read-out: solubility) was 38100 µg/mL (≈ 78.6 mM). The solubility at 7 days ([1]; 500 mM L-lysine solution with 200 mM HP-β-CD, aqueous with cosolvent or surfactant or cyclodextrin, L-lysine 500 mM, 25° C., read-out: Solubility with HP-β-CD (200 mM)) was 38100 µg/mL (≈ 78.6 mM), the solubility at 7 days ([1]; 500 mM L-lysine solution, no cyclodextrin, aqueous buffer, L-lysine 500 mM, 25° C., read-out: Solubility without CD) was 90 µg/mL (≈ 0.185 mM) and the solubility at 7 days ([1]; 500 mM L-lysine solution, no cyclodextrin, aqueous buffer, L-lysine (500 mM) separately, no CD, read-out: solubility) was 90 µg/mL (≈ 0.185 mM). The “increase of aqueous solubility” value ([1]; 500 mM of L-lysine and 200 mM of HP-β-CD) was 70,000 fold, the solubility at 7 days ([1]; purified water, no cyclodextrin, water, purified water, 25° C., read-out: Solubility without CD) was 0.56 µg/mL (≈ 0.00115 mM) and the BAL eosinophils ([2]; p<0.005) was “significant decrease”. For the same compound, the peribronchial inflammation scores ([2]; p<0.01) was “significant decrease”, the bronchial hyperresponsiveness ([2]; p<0.05) was “significant decrease” and the peribronchial inflammation scores ([3]; equal efficacy of all tested formulations) was “significantly lowered”. For the same compound, the “allergen-induced airway eosinophilic inflammation in BAL” value ([3]; solution or precipitate, vs placebo) was “lowered”.
